Measurements from US20100184683A1, “ANTIBACTERIAL AND ANTIFUNGAL PEPTIDES” (C3 JIAN, INC., priority 2009, published 2010).
Converted amounts (≈) assume the structure as drawn. Like-named read-outs stand apart in the source and are kept apart here. Ends that are not written are not given here. Peptide text beside a SMILES is read from it.

Experiments:
[1] = system: S. mutans; type: cell-based, Streptococcus mutans
Procedure: (§1) In certain embodiments the MIC assays are performed as described herein in the Examples. For each organism, the media and growth conditions utilized is detailed in Table 8.
(§2) In certain embodiments the MIC assays are performed as follows: For each organism, the media and growth conditions utilized is detailed in Table 8.

[2] = system: F. nucleatum; type: cell-based, Fusobacterium nucleatum
Procedure: as §1, §2

[3] = system: A. naeslundii; type: cell-based, Actinomyces naeslundii
Procedure: as §1, §2

[4] = system: P. gingivalis; type: cell-based, Porphyromonas gingivalis
Procedure: as §1, §2

[5] = system: M. furfur ATCC 14521; settings: 5 μM peptide, after 15 min of treatment, 10^6 cells/ml, ATCC medium 1072, 30° C.
Procedure: FIG. 1. Killing kinetics of PF-S028 L and D versions against M. furfur were determined using standard time-kill methods previously detailed (Eckert et al. (2006) Antimicrob Agents Chemother., 50: 1480-1488). Briefly, a log phase culture of M. furfur ATCC 14521 was diluted to 10^6 cells/ml in ATCC medium 1072. To the reaction tubes 5 μM of either PF-S028 L or PF-S028 D were added. A reaction tube to which 4 μl of 50% methanol served as the negative control. Reaction tubes were stored at 30° C. and at indicated intervals an aliquot was removed from the reaction tube and placed in a recovery tube where peptide was removed by dilution. An aliquot from the recovery tube was plated on ATCC medium 1072 agar plates and incubated at 30° C. until visible colonies formed. Colony forming units were calculated for the negative control (no peptide), PF-S028 L, and PF-S028 D treated cultures.
In some cases killing kinetic experiments were then conducted. Killing kinetics of PF-S028 L and D versions against M. furfur were determined as described in Eckert et al. (2006) Antimicrob Agents Chemother., 50: 1480-1488. Briefly, a log phase culture of M. furfur ATCC 14521 was diluted to 10^6 cells/ml in ATCC medium 1072. To the reaction tubes 5 μM of either PF-S028 L or PF-S028 D were added. […] Colony forming units were calculated for the negative control (no peptide), PF-S028 L, and PF-S028 D treated cultures.

[6] = system: MRSA; type: cell-based, Methicillin-resistant Staphylococcus aureus
Method in brief: (§3)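 MIC read-out; medium and growth conditions specific to each test organism.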

[7] = system: B. subtilis; type: cell-based, Bacillus subtilis
Method in brief: as §3

[8] = system: T. rubrum; type: cell-based, Trichophyton rubrum; settings: T. rubrum; Potato Dextrose Agar, 25° C., aerobic; inoculum 10^5 CFU/ml; 18-24 h or 48 h
Procedure: as §1, §2

[9] = system: C. jeikeium; experiment: MIC assay, C. jeikeium; type: cell-based, Corynebacterium jeikium; settings: TSB supplemented with 1% Tween-80, 37° C., aerobic, inoculum 10^6 CFU/ml, 18-24 h or 48 h
Procedure: as §1, §2

[10] = system: S. epidermidis; type: cell-based
Procedure: as §1, §2

[11] = system: A. niger; type: cell-based, Aspergillus niger; settings: A. niger; Potato Dextrose Agar, 25° C., aerobic; inoculum 10^5 CFU/ml; 18-24 h or 48 h
Method in brief: as §3

[12] = system: P. aeruginosa; type: cell-based, Pseudomonas aeruginosa; settings: P. aeruginosa; MH, 37° C., aerobic; inoculum 10^5 CFU/ml; 18-24 h or 48 h
Procedure: as §1, §2

[13] = system: A. baumannii; type: cell-based, Acinetobacter baumannii; settings: A. baumannii; LB, 30° C., anaerobic; inoculum 10^5 CFU/ml; 18-24 h or 48 h
Procedure: as §1, §2

[14] = system: C. difficile; type: cell-based, Clostridium difficile; settings: C. difficile; BHIS, 37° C., anaerobic; inoculum 10^5 CFU/ml; 18-24 h or 48 h
Procedure: as §1, §2

[15] = system: E. coli; type: cell-based, Escherichia coli
Procedure: as §1, §2

[16] = system: S. pneumoniae; type: cell-based, Streptococcus pneumoniae
Procedure: as §1, §2

[17] = S. epidermidis, BHI supplemented with 0.25% glucose, 37° C., aerobic, inoculum 10^5 CFU/ml, 18-24 h or 48 h

For `CC[C@H](C)[C@H](NC(=O)[C@H](CCC(N)=O)NC(=O)[C@H](CCCCN)NC(=O)[C@H](CC(C)C)NC(=O)[C@H](CC(C)C)NC(=O)[C@@H]1CCCN1C(=O)[C@H](CCSC)NC(=O)[C@H](CC(C)C)NC(=O)[C@H](CO)NC(=O)[C@H](CCCCN)NC(=O)CNC(=O)[C@@H](N)CCCCN)C(=O)N[C@@H](CC(N)=O)C(=O)N[C@@H](CCC(N)=O)C(=O)N[C@@H](Cc1c[nH]c2ccccc12)C(=O)NCC(=O)N[C@@H](CCCCN)C(=O)N[C@@H](CC(C)C)C(=O)N[C@@H](Cc1ccc(O)cc1)C(=O)N[C@@H](CC(C)C)C(=O)O` [PF-C239] (H-KGKSLMPLLKQINQWGKLYL-OH; N-terminus and C-terminus assumed), the MIC [1] was 50 µM (≈ 118 µg/mL), the MIC [2] was 50 µM (≈ 118 µg/mL) and the MIC [3] was 25 µM (≈ 59 µg/mL). It also gave an MIC [4] of 50 µM (≈ 118 µg/mL).
`CC[C@H](C)[C@H](NC(=O)[C@@H](NC(=O)[C@H](CO)NC(=O)CN)C(C)C)C(=O)N[C@@H](CCCCN)C(=O)N[C@@H](CCCCN)C(=O)N[C@@H](CCCNC(=N)N)C(=O)N[C@@H](CCCNC(=N)N)C(=O)N[C@@H](CCCCN)C(=O)N[C@@H](CCCNC(=N)N)C(=O)N[C@@H](CCSC)C(=O)N[C@@H](CO)C(=O)N[C@@H](CCCCN)C(=O)N[C@@H](CCCCN)C(=O)N[C@@H](CCCCN)C(=O)N[C@@H](Cc1c[nH]cn1)C(=O)N[C@@H](CCCNC(=N)N)C(=O)N[C@@H](CCCCN)C(=O)N[C@@H](CCSC)C(=O)N[C@@H](CC(C)C)C(=O)N[C@@H](CCCNC(=N)N)C(=O)N[C@@H](CCCNC(=N)N)C(=O)N[C@H](C(=O)N[C@@H](CCCNC(=N)N)C(=O)N[C@H](C(=O)N[C@@H](CCC(N)=O)C(=O)N[C@@H](CCCNC(=N)N)C(=O)N[C@@H](CCCNC(=N)N)C(=O)N[C@@H](CCCCN)C(=O)N[C@@H](CC(C)C)C(=O)NCC(=O)N[C@@H](CCCCN)C(=O)O)C(C)C)[C@@H](C)O` [PF-S028 L] gave a M. furfur killed [5] of 39%.
With `CC[C@H](C)[C@H](NC(=O)[C@H](CCCNC(=N)N)NC(=O)[C@@H](NC(=O)[C@H](CCCCN)NC(=O)[C@H](CCCCN)NC(=O)[C@H](CC(C)C)NC(=O)[C@H](CC(C)C)NC(=O)[C@H](CCCCN)NC(=O)[C@H](CCCNC(=N)N)NC(=O)[C@H](Cc1c[nH]cn1)NC(=O)[C@H](CCCCN)NC(=O)[C@H](CCCCN)NC(=O)[C@H](CCCCN)NC(=O)[C@H](C)NC(=O)[C@H](CCSC)NC(=O)[C@H](CCCNC(=N)N)NC(=O)[C@H](CCCCN)NC(=O)[C@H](CCCNC(=N)N)NC(=O)[C@H](CCCNC(=N)N)NC(=O)[C@H](CCCCN)NC(=O)[C@H](CCCCN)NC(=O)[C@@H](NC(=O)[C@@H](NC(=O)[C@H](CO)NC(=O)CN)C(C)C)[C@@H](C)CC)[C@@H](C)O)C(=O)N[C@@H](CCC(N)=O)C(=O)N[C@@H](CCCNC(=N)N)C(=O)N[C@@H](CCCNC(=N)N)C(=O)N[C@@H](CCCNC(=N)N)C(=O)N[C@@H](C)C(=O)NCC(=O)N[C@@H](CCCCN)C(=O)O` [PF-527] (H-GSVIKKRRKRMAKKKHRKLLKKTRIQRRRAGK-OH; N-terminus and C-terminus assumed) the MIC ([6]; MRSA, BHI supplemented with 2% glucose, 37° C., aerobic, inoculum 10^5 CFU/ml, 18-24 h or 48 h) was 50 µM (≈ 197 µg/mL), the MIC [7] was 12.5 µM (≈ 49.3 µg/mL) and the MIC [8] was 25 µM (≈ 98.5 µg/mL). For the same compound, the MIC [9] was 6.25 µM (≈ 24.6 µg/mL), the MIC [10, 17] was 25 µM (≈ 98.5 µg/mL) and the MIC [11] was 50 µM (≈ 197 µg/mL). The MIC [12] was 50 µM (≈ 197 µg/mL).
Compound YIQFHLNQQPRPKVKKIKIFL [PF-531] has an MIC [13] of 25 µM, an MIC ([1]; S. mutans, TH supplemented with 1% sucrose, 37° C., anaerobic, inoculum 10^5 CFU/ml, 18-24 h or 48 h) of 12.5 µM and an MIC ([7]; B. subtilis, BHI, 30° C., aerobic, inoculum 10^5 CFU/ml, 18-24 h or 48 h) of 25 µM. It also gave an MIC [8] of 50 µM, an MIC [14] of 12.5 µM and an MIC [9] of 6.25 µM. For the same compound, the MIC [10, 17] was 50 µM, the MIC [11] was 25 µM and the MIC [12] was 50 µM.
“TKKIELKRFVDAFVKKSYENYILERELKKLIKAINEELPTK [PF-600]” was tested, and the MIC [15] was 50 µM and the MIC [16] was 50 µM.
For `CC[C@@H](C)[C@@H](NC(=O)[C@H](NC(=O)[C@@H](CO)NC(=O)CN)C(C)C)C(=O)N[C@H](CCCCN)C(=O)N[C@H](CCCCN)C(=O)N[C@H](CCCNC(=N)N)C(=O)N[C@H](CCCNC(=N)N)C(=O)N[C@H](CCCCN)C(=O)N[C@H](CCCNC(=N)N)C(=O)N[C@H](CCSC)C(=O)N[C@H](CO)C(=O)N[C@H](CCCCN)C(=O)N[C@H](CCCCN)C(=O)N[C@H](CCCCN)C(=O)N[C@H](Cc1c[nH]cn1)C(=O)N[C@H](CCCNC(=N)N)C(=O)N[C@H](CCCCN)C(=O)N[C@H](CCSC)C(=O)N[C@H](CC(C)C)C(=O)N[C@H](CCCNC(=N)N)C(=O)N[C@H](CCCNC(=N)N)C(=O)N[C@@H](C(=O)N[C@H](CCCNC(=N)N)C(=O)N[C@@H](C(=O)N[C@H](CCC(N)=O)C(=O)N[C@H](CCCNC(=N)N)C(=O)N[C@H](CCCNC(=N)N)C(=O)N[C@H](CCCCN)C(=O)N[C@H](CC(C)C)C(=O)NCC(=O)N[C@H](CCCCN)C(=O)O)C(C)C)[C@H](C)O` [PF-S028 D], the M. furfur killed [5] was “over 99%”.
`CC[C@H](C)[C@H](NC(=O)[C@H](CCCCN)NC(=O)CNC(=O)[C@H](CC(N)=O)NC(=O)[C@H](CCC(N)=O)NC(=O)[C@H](Cc1ccc(O)cc1)NC(=O)[C@H](C)NC(=O)[C@H](CCCCN)NC(=O)[C@H](C)NC(=O)[C@H](Cc1ccccc1)NC(=O)[C@H](CC(=O)O)NC(=O)[C@H](CCC(N)=O)NC(=O)[C@H](Cc1c[nH]cn1)NC(=O)[C@H](CO)NC(=O)[C@H](CC(N)=O)NC(=O)[C@H](Cc1ccccc1)NC(=O)[C@H](CO)NC(=O)[C@H](CC(C)C)NC(=O)[C@H](C)NC(=O)[C@@H](NC(=O)[C@H](CC(N)=O)NC(=O)[C@@H](NC(=O)[C@H](CCCCN)NC(=O)[C@H](CCCCN)NC(=O)[C@H](CCC(=O)O)NC(=O)[C@H](CCCCN)NC(=O)[C@H](CC(=O)O)NC(=O)[C@H](CC(C)C)NC(=O)[C@H](CCC(=O)O)NC(=O)[C@H](CCCCN)NC(=O)[C@H](CO)NC(=O)[C@H](C)NC(=O)[C@H](CC(N)=O)NC(=O)[C@H](CC(C)C)NC(=O)[C@@H](NC(=O)[C@H](CCCCN)NC(=O)[C@H](CO)NC(=O)[C@H](CCC(=O)O)NC(=O)[C@@H](N)Cc1ccccc1)[C@@H](C)CC)C(C)C)[C@@H](C)O)C(=O)O` [PF-606] (H-FESKILNASKELDKEKKVNTALSFNSHQDFAKAYQNGKI-OH; N-terminus and C-terminus assumed) was tested, and the MIC [6] was 50 µM (≈ 222 µg/mL), the MIC [1] was 50 µM (≈ 222 µg/mL) and the MIC [10] was 50 µM (≈ 222 µg/mL). For the same compound, the MIC [15] was 50 µM (≈ 222 µg/mL) and the MIC [16] was 50 µM (≈ 222 µg/mL).
